pIC50: −log10 of the molar value. “And” between values parts separate entries of the source, which are not always exact repeats. Identical values can stand only once. Bounds are passed on as bounds.

The target of the assay is Nonstructural protein 3 (Zika virus, UniProt A0A024AXB9). The assay can be described thus: Functional biochemical assay to identify treatments for viral infectious disease that targets Zika NS2B-NS3 protease. Utilizing a direct enzyme activity measurement method, reading the fluorescence intensity is used to characterize the relative potency of inhibitors as IC50. Further details: species or system PRVABC59.
Sequence of Nonstructural protein 3 (A0A024AXB9 whole entry): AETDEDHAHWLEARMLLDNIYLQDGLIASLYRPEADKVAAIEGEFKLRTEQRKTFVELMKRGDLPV
One may read the pIC50 as the negative decadic logarithm of the IC50, by convention in mol/L. With `CC(C)c1cc(-c2ccc3[nH]c(C(=O)O)cc3c2)cc(S(N)(=O)=O)c1`, the pIC50 is under 4.00.

In the case of `CC(C)(C)OC(=O)NCc1cc(NC(=O)c2cc(Cl)cc(NC(=O)OCc3ccccc3)c2)cc(-c2nn[nH]n2)c1`, the pIC50 is 4.94.

Consider `NCCCCc1ccc(NC(=O)c2cc(Cl)cc3[nH]ncc23)cc1`, for which the negative logarithm of the IC50 (pIC50) is 4.70.

In turn, `O=C(Nc1ccc2c(c1)CNCC2)c1cc(Cl)cc2[nH]ncc12` gave a pIC50 of 6.30.

In the case of `O=C(O)c1cc2cc(-c3cccc([C@H]4CNCCO4)c3)ccc2[nH]1`, the pIC50 was under 4.00.

For `O=C(O)Cc1c[nH]c2cc(-c3cc(Cl)cc(NC(=O)OCc4ccccc4)c3)ccc12`, the pIC50 is under 4.00.

For `CC(C)(C)c1cc(Br)cc(C(=O)Nc2ccc3c(c2)CNC3)c1`, the pIC50 is 6.45.

For the molecule `Cc1oc2nc(-c3cc(Cl)cc(NC(=O)OCc4ccccc4)c3)ccc2c1C(=O)O`, the pIC50 is under 4.00.

Take `CN1Cc2ccc(NC(=O)c3cc(Cl)cc4[nH]ncc34)cc2C1`: the pIC50 was 6.08.

The molecule `Cc1cc(CN)cc(NC(=O)c2cc(Cl)cc3[nH]ncc23)c1` gave a pIC50 of 6.13.

In the case of `CC(C)NC(=O)[C@H](Nc1ccc2c(c1)CNC2)c1cc(Cl)cc2[nH]ncc12`, the pIC50 was 7.07 and 7.27 and 6.91 and 6.86 and 7.05.

`O=C1CCc2c(cc(Cl)cc2-c2ccc3[nH]c(C(=O)O)cc3c2)N1` gave a pIC50 of under 4.00.

Regarding `O=C(Nc1ccc2c(c1)CNC2)c1cc(Br)cc2ccccc12`, the pIC50 is 6.69.

As for `NCCc1ccc(NC(=O)c2cc(Cl)cc3[nH]ncc23)cc1`, the pIC50 is 5.42.

On to `O=C(Nc1ccc2c(c1)CNC2)c1cc(Cl)cc2c1CCC2`, for which the pIC50 is 6.80.

`O=C(O)c1cc2cccc(Cc3c[nH]c4ccc(Cl)cc34)c2[nH]1` gave a pIC50 of under 4.00.

Consider `O=C(Nc1ccc2c(c1)CNC2)c1n[nH]c(=O)c2ccccc12`, for which the pIC50 is 4.65.

In the case of `Clc1ccc2[nH]cc(Cc3ccc4c(c3)CNC4)c2c1`, the pIC50 was under 4.00.

Molecule `O=C(Nc1ccc2c(c1)CNC2)c1ccccn1` gave a pIC50 of 4.24.

Take `O=C(O)c1nc(Cc2c[nH]c3ccc(Cl)cc23)c2ccccn12`: the pIC50 is under 4.00.

In the case of `C=CC[C@H](Nc1ccc2c(c1)CNC2)c1cc(Cl)cc2[nH]ncc12`, the pIC50 was 5.10.

Consider `O=C(Nc1ccc2c(c1)CNC2)c1cccnc1`, for which the pIC50 is 4.78.

As to `O=C(O)c1cc2cc(-c3cc(Cl)cc4c3CCNC4=O)ccc2[nH]1`, the negative logarithm of the IC50 (pIC50) is under 4.00.

`O=C(O)c1cc2cc(-c3cccc([C@H]4COCCN4)c3)ccc2[nH]1` had a negative-log IC50 (pIC50) of under 4.00.

Molecule `CC(C)c1cc(Br)cc(C(=O)Nc2ccc3c(c2)CNC3)c1` showed a pIC50 of 6.41.

As for `N[C@H]1CC[C@H](c2ccc(NC(=O)c3cc(Cl)cc4[nH]ncc34)cc2)C1`, the pIC50 is 5.07.

Regarding `Cc1ccc(C(C)C)c(C(=O)Nc2ccc3c(c2)CNC3)c1`, the pIC50 is 5.43.

Molecule `O=C(Nc1ccc2c(c1)CNC2)c1cc(Br)cc2c1OCO2` gave a pIC50 of 6.07. This pIC50 lies 0.64 log units higher than the previous one.

As for `O=C(O)COc1cc2c(cc1Cc1c[nH]c3ccc(Cl)cc13)OCO2`, the pIC50 is under 4.00.

`Cc1[nH]c2ccc(Cl)cc2c1Cc1ccc(-c2nnn[nH]2)cc1`: the pIC50 was under 4.00.

`O=C1Cc2cc(NC(=O)c3cc(Cl)cc4[nH]ncc34)ccc2N1`: the pIC50 is under 4.00.

For the molecule `O=C(Nc1ccc2c(c1)OCO2)c1cc(Cl)cc2[nH]ncc12`, the pIC50 is under 4.00.

For the molecule `Cc1c(C(=O)O)sc2ncc(Cc3c[nH]c4ccc(Cl)cc34)cc12`, the negative logarithm of the IC50 (pIC50) was 4.01.

Molecule `O=C(O)c1cc(Cc2c[nH]c3ccc(Cl)cc23)cc(C2CC2)n1` showed a pIC50 of under 4.00.

Regarding `O=C(Nc1ccc(C2CNC2)cc1)c1cc(Cl)cc2[nH]ncc12`, the negative logarithm of the IC50 (pIC50) is 5.92.

In the case of `Cn1ncc2c(C(=O)Nc3ccc4c(c3)CNC4)cc(Br)cc21`, the pIC50 was 6.56.

Molecule `CNC(=O)[C@H](Nc1cc(CNC(=O)OC(C)(C)C)cc(C(=O)O)c1)c1cc(Cl)cc(C2CC2)c1` had a pIC50 of under 4.00.

`O=C(O)[C@H]1C[C@H](n2ccc(Cc3c[nH]c4ccc(Cl)cc34)n2)C1` gave a negative logarithm of the IC50 (pIC50) of under 4.00.

In the case of `O=C(Nc1cccc([C@@H]2C[C@H]2C(=O)O)c1)c1cc(Cl)cc2[nH]ncc12`, the pIC50 was under 4.00.

`C=CC[C@H](Nc1cccc(C2(C(=O)O)CCC2)c1)c1cc(Cl)cc(NC(=O)OCc2ccccc2)c1` had a pIC50 of 4.47.

Turning to `c1ccc2c(Cc3ccc(-c4nnn[nH]4)cc3)c[nH]c2c1`, the pIC50 is under 4.00.

Take `Nc1ccc(NC(=O)c2cc(Cl)cc3[nH]ncc23)cn1`: the pIC50 is under 4.00.

In the case of `O=C(Nc1ccc2c(c1)C[C@H](O)C2)c1cc(Cl)cc2[nH]ncc12`, the pIC50 is under 4.00.

In turn, `N#Cc1cc(-c2ccc3[nH]c(C(=O)O)cc3c2)cc(N2CCCC2)c1` had a pIC50 of under 4.00.

`CNc1c(-c2cc(Cl)cc(C3CC3)c2)nc2cc(C(=O)O)ccn12` gave a pIC50 of under 4.00.

Turning to `O=C(O)c1nn(-c2ccccc2)cc1Cc1c[nH]c2ccc(Cl)cc12`, the pIC50 is under 4.00.

`CNc1c(-c2cc(Cl)cc(C3CC3)c2)nc2cccc(C(=O)O)n12` had a pIC50 of under 4.00.

Regarding `N#Cc1cccc(C[C@H](O)c2cc(Cl)cc(NC(=O)OCc3ccccc3)c2)c1`, the negative-log IC50 (pIC50) is under 4.00.

With `O=C(Nc1ccc(C2CCNCC2)cc1)c1cc(Cl)cc2[nH]ncc12`, the pIC50 is 5.04.

On to `O=C(O)c1ccc(Cc2c[nH]c3ccc(Cl)cc23)cc1`, for which the pIC50 was under 4.00.

Molecule `N#C[C@]1(Nc2cccc(-c3nn[nH]n3)c2)C(=O)Nc2ccc(Cl)cc21` showed a negative-log IC50 (pIC50) of under 4.00.

For the molecule `O=Cc1ccc(N2CCC(C(=O)Nc3cccc(Br)n3)CC2)cc1`, the pIC50 is 4.61.

For `O=Cc1ccc(N2CCC(C(=O)NCCc3ccc(O)c(O)c3)CC2)cc1`, the pIC50 was 4.25. Against the preceding molecule, the pIC50 is 0.36 log units lower.

Molecule `C=CC[C@H](Nc1cncc(Cl)c1)c1cccc(-c2nn[nH]n2)c1` showed a pIC50 of under 4.00.

For the molecule `C=CC[C@H](Nc1cccc(Cl)c1)c1cccc(-c2nn[nH]n2)c1`, the pIC50 is under 4.00.

On to `O=C(O)CCCn1cnc(-c2cc(Cl)cc(NC(=O)OCc3ccccc3)c2)n1`, for which the pIC50 is under 4.00.

Regarding `N#C[C@H](Nc1cncc(-c2nn[nH]n2)c1)c1cc(Cl)cc(NC(=O)OCc2ccccc2)c1`, the pIC50 is 4.28.

Take `N#C[C@H](c1cc(Cl)cc(C2CC2)c1)N1c2cnccc2C[C@H]1C(=O)O`: the pIC50 is under 4.00.

`NCc1cc(CCc2cc(Cl)cc(NC(=O)OCc3ccccc3)c2)cc(C(=O)O)c1`: the pIC50 was under 4.00.

Molecule `Clc1cc([C@@H]2C[C@H]2c2cccc(-c3nn[nH]n3)c2)c2cn[nH]c2c1` showed a pIC50 of under 4.00.

As to `O=C(Nc1cc(Cl)cc([C@H]2[C@H](CO)[C@@H]2c2cccc(-c3nn[nH]n3)c2)c1)OCc1ccccc1`, the negative-log IC50 (pIC50) is 4.08.

The molecule `O=C(O)c1cc2cc(-c3nccc(C(F)F)n3)ccc2[nH]1` had a pIC50 of under 4.00.

As to `N#C[C@H](Nc1ccc2c(c1)CNC2)c1cc(Cl)cc2[nH]ncc12`, the pIC50 is 6.94.

For `NCc1cc(Cl)cc(-c2ccc3[nH]c(C(=O)O)cc3c2)c1`, the pIC50 is under 4.00.

Turning to `N#C[C@H](Nc1ccc(CCC(=O)O)cn1)c1cc(Cl)cc(C2CC2)c1`, the pIC50 was under 4.00.

`O=Cc1ccc(N2CCC(C(=O)NCc3cccc(-c4ccccc4)c3)CC2)cc1`: the pIC50 is under 4.00.

Regarding `N#C[C@H](Nc1cccn(CC(=O)O)c1=O)c1cc(Cl)cc(C2CC2)c1`, the pIC50 was under 4.00.

With `CNc1ncc(C(F)(F)F)cc1-c1ccc2[nH]c(C(=O)O)cc2c1`, the pIC50 was under 4.00.

In turn, `O=Cc1ccc(N2CCC(C(=O)NCCN3CCc4ccccc43)CC2)cc1` gave a pIC50 of 4.60.

For `O=C(Nc1cc(Cl)cc(-c2cn(C3CCCC3)nc2C(=O)O)c1)OCc1ccccc1`, the pIC50 is 4.02.

In turn, `NCc1cc(NC(=O)c2cc(Cl)cc(NC(=O)OCc3ccccc3)c2)cc([C@@H]2C[C@H]2C(=O)O)c1` showed a negative-log IC50 (pIC50) of 5.25. This pIC50 is 1.23 log units higher than that of the molecule before.

In turn, `CNC(=O)[C@H](Nc1cc(CN)cc(C(=O)O)c1)c1cc(Cl)cc(C2CC2)c1` had a pIC50 of 6.10.

For the molecule `NCc1cc(CC(=O)O)cc(NC(=O)c2cc(Cl)cc(NC(=O)OCc3ccccc3)c2)c1`, the pIC50 was 5.10.

For the molecule `C[C@@]1(c2cccc(CN)c2)C[C@H]1c1cc(Cl)cc(NC(=O)OCc2ccccc2)c1`, the pIC50 is 5.25.

In turn, `COc1cc(-c2cc(Cl)cc(NC(=O)OCc3ccccc3)c2)c(OC)cc1CC(=O)O` had a pIC50 of 4.03.

For the molecule `Cc1c(C(=O)Nc2cccc(-c3nnn[nH]3)c2)cnn1-c1ccc(Cl)cc1`, the negative-log IC50 (pIC50) was under 4.00.

`OCC#C[C@H](Nc1ccc2c(c1)CNC2)c1cc(Cl)cc2[nH]ncc12` had a pIC50 of 5.96.

Regarding `CNC(=O)[C@H](Nc1cc(Cl)cc(C2CC2)c1)c1ccc(-c2nn[nH]n2)cc1`, the pIC50 is under 4.00.

`CNC(=O)[C@H](Nc1cccc(C2(C(=O)O)CCC2)c1)c1cc(Cl)cc(C2CC2)c1` gave a pIC50 of under 4.00.

As to `Cc1ccc2cccc(NC(=O)C3CCN(c4ccc(C=O)cc4)CC3)c2n1`, the pIC50 was 4.52.

Turning to `N#Cc1cc(Cl)cc(-c2ccc3[nH]c(C(=O)O)cc3c2)c1`, the pIC50 was under 4.00.

In the case of `C[C@@]1(c2cc(Cl)cc(NC(=O)OCc3ccccc3)c2)C[C@H]1c1cccc(CN)c1`, the pIC50 was 4.71.

`O=C(O)c1cc2cc(-c3cc(Cl)cc(C4CC4)c3)ccc2[nH]1` had a pIC50 of 4.48.

In turn, `CNC(=O)[C@H](Nc1cncc(C(=O)O)c1)c1cc(Cl)cc(C2CC2)c1` had a pIC50 of under 4.00.

The molecule `C[C@](O)(Cc1cc(Cl)cc(NC(=O)OCc2ccccc2)c1)c1cccc(CN)c1` gave a pIC50 of under 4.00.

Consider `O=Cc1ccc(N2CCC(C(=O)Nc3ncc(Br)cc3O)CC2)cc1`, for which the negative logarithm of the IC50 (pIC50) is 4.27.

As to `NC(=O)C1(N2CCCCC2)CCN(C(=O)C2CCN(c3ccc(C=O)cc3)CC2)CC1`, the pIC50 was 4.24.

The molecule `CCc1cc(Br)cc2c(Cc3ccc(-c4nnn[nH]4)cc3)c[nH]c12` showed a pIC50 of 4.58.

As to `CC(C)[C@H](NC(=O)[C@@H]1CCCN1C(=O)OCc1ccccc1)P(=O)(Oc1ccc(F)cc1)Oc1ccc(F)cc1`, the pIC50 is under 4.00.

The molecule `CC(C)[C@H](CC(=O)O)NC(=O)c1cc(Cl)cc(NC(=O)OCc2ccccc2)c1` had a pIC50 of under 4.00.

Take `N#C[C@H](Nc1ccc(CC(=O)O)cn1)c1cc(Cl)cc(C2CC2)c1`: the pIC50 is under 4.00.

The molecule `CNC(=O)[C@H](Nc1cc(CN)cc(-c2nn[nH]n2)c1)c1cc(Cl)cc(C2CC2)c1` showed a negative-log IC50 (pIC50) of 6.23.

Values taken from ChEMBL document CHEMBL5604062, “ASAP - ZIKV NS2B-NS3 protease fluorescence dose response” (2024).
